From patent US4560689A, “Heterocyclic-fused pyrazolo-[3,4-d]pyridin-3-ones as benzodiazepine receptor modulators” (Ciba-Geigy Corporation, priority 1984, dated 1985) come the findings set out here.

Each structure is given as a SMILES string. pIC50: −log10 of the molar value. Structures can show the parent of a compound that is named as a salt.

The subject of experiment [1] is benzodiazepine receptor. Description: in vivo benzodiazepine receptor binding (3H-flunitrazepam). Conditions: 30 mg/kg p.o. in the mouse. As to the method:
In vivo benzodiazepine receptor binding is determined essentially as described in Eur. J. Pharmacol. 48, 213 (1978) and Nature 275, 551 (1978).
Test compounds in a corn starch vehicle are administered orally or intraperitioneally to mice or rats. Thirty minutes later, 3H-flunitrazepam(2 nmoles/Kg in saline) is injected into the tail vein, and the animals are sacrificed 20 minutes after injection of the flunitrazepam. The brains are then assayed by determining radioactivity in a liquid scintillation counter for binding of the radioligand to the receptors. A decrease in the binding of 3H-flunitrazepam in the drug-treated animals (as compared with the binding observed in animals treated with vehicle alone) is indicative of benzodiazepine receptor binding by the test compound.

The target in experiment [2] is benzodiazepine receptor. Description: in vitro benzodiazepine receptor binding assay (tritiated diazepam displacement). The following applies: inhibition of specific binding of 2 nM tritiated diazepam, membranes from rat fore-brain, 0°-5°, 30 minutes, pH 7.5. The protocol:
The benzodiazepine receptor binding properties indicative of the nervous system regulatory activity of said new compounds are determined in the receptor binding assay in vitro, e.g. as described in Nature 266, 732 (1977) or Proc. Nat. Acad. Sci. USA 74, 3805 (1977). Diazepam binds specifically and with high affinity to crude synaptosomal membrane preparations from rat fore-brain. This binding is inhibited by other anxiolytic compounds. When tritiated diazepem is used, the interaction of other drugs with said receptor can be readily assessed thus: membranes from rat fore-brain are incubated at 0°-5° for 30 minutes with 2 nM tritiated diazepam and various concentrations of the test substance in a buffer medium maintained at pH 7.5. Solutions of the various concentrations of test substances are prepared by dilution of a 4.2 mM stock solution in dimethylacetamide-ethanol (1:10) with 50 mM pH7.5. Tris-HCl buffer. The membranes, containing the receptors with various amounts of tritiated diazepam, are filtered onto glass fiber filters, which are then analyzed in a liquid scintillation counter. The concentration of the compounds of this invention, required to inhibit the specific binding of 2 nM of tritiated diazepam by 50%, i.e. the IC50, is determined graphically.

Regarding `O=c1c2c[nH]c3ccncc3c-2nn1-c1ccccc1` [Example 1, 2-phenyl-pyrazolo[4,3-c][1,6]naphthyridin-3(5H)-one], the “inhibits flunitrazepam binding in vivo” value in experiment [1] was “about 75%”. Usually pIC50 stands for the negative decadic logarithm of the IC50, by convention in mol/L. `O=c1c2c[nH]c3ccncc3c-2nn1-c1ccc(Cl)cc1` [Example 2, 2-p-chlorophenyl-pyrazolo[4,3-c][1,6]naphthyridin-3(5H)-one] had a pIC50 in experiment [2] of around 9.70. The same measure, in the same setting: then `O=c1c2c[nH]c3ccncc3c-2nn1-c1cccnc1` [Example 5a, 2-(3-pyridyl)pyrazolo[4,3-c][1,6]naphthyridin-3-(5H)-one hydrochloride], with around 8.52; and `O=c1c2c[nH]c3sccc3c-2nn1-c1ccc(Cl)cc1` [Example 9, 2-(4-chlorophenyl)-thieno[2,3-b]pyrazolo[3,4-d]pyridin-3(5H)-one hydrate], with around 8.05.
